Laboratory results taken from PubChem BioAssay AID2060363 (Molecular Pharmacology Branch, DTP, NCI, 2025).

System: 156681-154-R-J1-PDC tumor spheroids, viability % test/control
Assay: Anticancer human tumor 156681-154-R-J1-PDC patient-derived melanoma cell line growth inhibition [TAK]
Conditions: spheroids with HUVEC and MSC; for IC50: curve of first compound; for viability, T/C: stronger effect = lower value
Description: Combinatorial screen of targeted agents with TAK-243 and ipatasertib in multi-cell type tumor spheroids
A high-throughput screen of multi-cell type tumor spheroids was designed to identify active combinations of targeted small molecules and TAK-243 or ipatasertib. Complex spheroids include a stromal component modeled by human endothelial cells (HUVEC) and fibroblasts modeled by human mesenchymal stem cells (MSCs). The concentration ranges selected for each drug and investigational agent were based upon clinically achievable concentrations if the clinical Cmax of the agent was known.
Compounds. The drugs and investigational agents: TAK-243 (785004), ipatasertib (767898), everolimus (733504), selumetinib (741078), bortezomib (756655), trametinib (758246), ixazomib (758254), vemurafenib (761431), dabrafenib (764134), sapanisertib (764658), alpelisib (765974), and copanlisib (816437), were obtained from the National Cancer Institute (NCI) Developmental Therapeutics Program Chemical Repository. The FDA-approved anticancer drug set is available from the NCI Developmental Therapeutics Program. […] The stock solutions were prepared in dimethyl sulfoxide (DMSO, Sigma-Aldrich, St. Louis, MO, cat. D2650) at 800-fold the tested concentration and stored at -70 degrees C prior to their use. All drugs and investigational agents were tested over a range starting from a high concentration at or near the clinical Cmax and decreasing in half-log increments. If the clinical Cmax for an agent had not been determined, the highest concentration tested was 10 microM.
NCI60 Cell Culture. NCI60 cell lines were obtained from the NCI Developmental Therapeutics Program Tumor Repository. For each lot of cells, the Repository performed Applied Biosystems AmpFLSTR Identifiler testing with PCR amplification to confirm consistency with the published Identifier STR profile for each cell line. Cells were kept in continuous culture for no more than 20 passages. The optimal seeding densities for each of the cell lines at each time point assessed were determined prior to performing the concentration response studies. Briefly, the NCI60 human tumor lines were grown as monolayers in RPMI 1640 medium supplemented with 10% FBS and 2 mmol/L L-glutamine.
An additional 2 lines were from the NCI60 cell line panel including melanomas, MALME-3M and SK-MEL-2. Pooled donor human umbilical vein endothelial cells (HUVEC, Lonza, cat. CC-2519) and human mesenchymal stem cells (hMSC, Lonza, cat. PT-2501) were purchased from Lonza (Walkersville, MD).
PDMR cell lines were grown in complete medium (DC medium): Dulbecco's modified Eagle's medium (DMEM)/F12 supplemented with 5% fetal bovine serum (FBS), 2 mM L-glutamine, 100 U/mL penicillin and 100 µg/ml streptomycin, 0.4 µg/ml hydrocortisone, 10 ng/ml epidermal growth factor (EGF) recombinant human protein, 24 µg/mL adenine, and 0.1 mg/mL primocin. During culture from frozen stock vials, PDMR cells were cultured in the same medium containing 10 µM Y-27632 (see Table 3). The PDCs were cultured in complete DMEM/F12 media without 10 microM Y-27632 dihydrochloride for at least two passages prior to the screen. The pooled donor HUVEC and hMSC were cultured in endothelial cell growth medium 2 (PromoCell, Heidelberg, Germany, cat. C-22011) and mesenchymal stem cell growth medium 2 (PromoCell, cat. C-28009), respectively. For all experiments, HUVEC and hMSC were used at passages </=5.
For the pre-screen, cell seeding densities were determined from a titration spanning the range from 5,000 to 313 cells per well. The mct-spheroids including 60% malignant cells, 25% HUVEC and 15% MSC dispensed as a mixture into U-bottom Ultra-Low Attachment 384-well plates (Corning, NY)
High-throughput Drug Combination Screening.
Prior to their inoculation into 384-well plates, malignant cells, HUVEC, and hMSC were removed from T flasks using TrypLE express (Thermo Fisher Scientific, cat. 12605036) and harvested by centrifugation for 5 min at 233 x g. […]
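Further: spheroids exposed to compounds for 7 days before the endpoint.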

**Q.** What does the source list for COC1CC2CCC(C)C(O)(O2)C(=O)C(=O)N2CCCCC2C(=O)OC(C(C)CC2CCC(OCCO)C(OC)C2)CC(=O)C(C)C=C(C)C(O)C(OC)C(=O)C(C)CC(C)C=CC=CC=C1C (stereo not given) + CC(C)NCC(C(=O)N1CCN(c2ncnc3c2C(C)CC3O)CC1)c1ccc(Cl)cc1?
**A.** IC50 (second compound 0.3 µM): 29 nM; IC50 (second compound 0.949 µM): 2.9 nM; IC50 (second compound 3 µM): 0.525 nM; IC50 (second compound 9.49 µM): < 0.316 nM; IC50 (second compound 30 µM): < 0.316 nM; viability, T/C (second compound 0.3 µM, first compound 0.000316 µM): 80%; viability, T/C (second compound 0.3 µM, first compound 0.001 µM): 79.9%; viability, T/C (second compound 0.3 µM, first compound 0.00316 µM): 65.6%; viability, T/C (second compound 0.3 µM, first compound 0.01 µM): 55.7%; viability, T/C (second compound 0.3 µM, first compound 0.0316 µM): 51.8%; viability, T/C (second compound 0.3 µM, first compound 0.1 µM): 45.9%; viability, T/C (second compound 0.949 µM, first compound 0.000316 µM): 80.8%; viability, T/C (second compound 0.949 µM, first compound 0.001 µM): 65.2%; viability, T/C (second compound 0.949 µM, first compound 0.00316 µM): 48.4%; viability, T/C (second compound 0.949 µM, first compound 0.01 µM): 45.1%; viability, T/C (second compound 0.949 µM, first compound 0.0316 µM): 46.5%; viability, T/C (second compound 0.949 µM, first compound 0.1 µM): 40.7%; viability, T/C (second compound 3 µM, first compound 0.000316 µM): 51.8%; viability, T/C (second compound 3 µM, first compound 0.001 µM): 49.1%; viability, T/C (second compound 3 µM, first compound 0.00316 µM): 37.5%; viability, T/C (second compound 3 µM, first compound 0.01 µM): 32.5%; viability, T/C (second compound 3 µM, first compound 0.0316 µM): 28.6%; viability, T/C (second compound 3 µM, first compound 0.1 µM): 29.4%; viability, T/C (second compound 9.49 µM, first compound 0.000316 µM): 31.6%; viability, T/C (second compound 9.49 µM, first compound 0.001 µM): 28%; viability, T/C (second compound 9.49 µM, first compound 0.00316 µM): 21.2%; viability, T/C (second compound 9.49 µM, first compound 0.01 µM): 18.8%; viability, T/C (second compound 9.49 µM, first compound 0.0316 µM): 19.5%; viability, T/C (second compound 9.49 µM, first compound 0.1 µM): 17.4%; viability, T/C (second compound 30 µM, first compound 0.000316 µM): 15.9%; viability, T/C (second compound 30 µM, first compound 0.001 µM): 13.5%; viability, T/C (second compound 30 µM, first compound 0.00316 µM): 12.1%; viability, T/C (second compound 30 µM, first compound 0.01 µM): 8.24%; viability, T/C (second compound 30 µM, first compound 0.0316 µM): 9.33%; viability, T/C (second compound 30 µM, first compound 0.1 µM): 8.33%

**Q.** For Cn1cnc2c(F)c(Nc3ccc(Br)cc3Cl)c(C(=O)NOCCO)cc21 + CC(C)NCC(C(=O)N1CCN(c2ncnc3c2C(C)CC3O)CC1)c1ccc(Cl)cc1, which IC50 (second compound 0.3 µM) is on record?
**A.** 602 nM

**Q.** What about the IC50 (second compound 0.949 µM) of the same molecule?
**A.** 493 nM

**Q.** And the IC50 (second compound 3 µM)?
**A.** 331 nM

**Q.** And the IC50 (second compound 9.49 µM)?
**A.** < 9.49 nM

**Q.** And the IC50 (second compound 30 µM)?
**A.** < 9.49 nM

**Q.** And the viability, T/C (second compound 0.3 µM, first compound 0.00949 µM)?
**A.** 96.6%

**Q.** And the viability, T/C (second compound 0.3 µM, first compound 0.03 µM)?
**A.** 97%

**Q.** What about the viability, T/C (second compound 0.3 µM, first compound 0.0949 µM) of the same molecule?
**A.** 83.8%

**Q.** And the viability, T/C (second compound 0.3 µM, first compound 0.3 µM)?
**A.** 81.2%

**Q.** And the viability, T/C (second compound 0.3 µM, first compound 0.949 µM)?
**A.** 30%

**Q.** What about the viability, T/C (second compound 0.3 µM, first compound 3 µM) of the same molecule?
**A.** 9.69%

**Q.** And the viability, T/C (second compound 0.949 µM, first compound 0.00949 µM)?
**A.** 81.1%

**Q.** What about the viability, T/C (second compound 0.949 µM, first compound 0.03 µM) of the same molecule?
**A.** 78.3%

**Q.** And the viability, T/C (second compound 0.949 µM, first compound 0.0949 µM)?
**A.** 86.2%

**Q.** And the viability, T/C (second compound 0.949 µM, first compound 0.3 µM)?
**A.** 71.3%

**Q.** What about the viability, T/C (second compound 0.949 µM, first compound 0.949 µM) of the same molecule?
**A.** 21.4%

**Q.** What about the viability, T/C (second compound 0.949 µM, first compound 3 µM) of the same molecule?
**A.** 7.25%

**Q.** What about the viability, T/C (second compound 3 µM, first compound 0.00949 µM) of the same molecule?
**A.** 69.1%

**Q.** What about the viability, T/C (second compound 3 µM, first compound 0.03 µM) of the same molecule?
**A.** 73.4%

**Q.** And the viability, T/C (second compound 3 µM, first compound 0.0949 µM)?
**A.** 68.6%

**Q.** What about the viability, T/C (second compound 3 µM, first compound 0.3 µM) of the same molecule?
**A.** 53.6%

**Q.** And the viability, T/C (second compound 3 µM, first compound 0.949 µM)?
**A.** 13.1%

**Q.** What about the viability, T/C (second compound 3 µM, first compound 3 µM) of the same molecule?
**A.** 4.67%

**Q.** What about the viability, T/C (second compound 9.49 µM, first compound 0.00949 µM) of the same molecule?
**A.** 43.3%

**Q.** What about the viability, T/C (second compound 9.49 µM, first compound 0.03 µM) of the same molecule?
**A.** 44.8%

**Q.** And the viability, T/C (second compound 9.49 µM, first compound 0.0949 µM)?
**A.** 36.6%

**Q.** And the viability, T/C (second compound 9.49 µM, first compound 0.3 µM)?
**A.** 24.6%

**Q.** What about the viability, T/C (second compound 9.49 µM, first compound 0.949 µM) of the same molecule?
**A.** 7.73%

**Q.** What about the viability, T/C (second compound 9.49 µM, first compound 3 µM) of the same molecule?
**A.** 1.63%

**Q.** What about the viability, T/C (second compound 30 µM, first compound 0.00949 µM) of the same molecule?
**A.** 20.6%

**Q.** And the viability, T/C (second compound 30 µM, first compound 0.03 µM)?
**A.** 17.8%

**Q.** What about the viability, T/C (second compound 30 µM, first compound 0.0949 µM) of the same molecule?
**A.** 15.7%

**Q.** And the viability, T/C (second compound 30 µM, first compound 0.3 µM)?
**A.** 10.4%

**Q.** What about the viability, T/C (second compound 30 µM, first compound 0.949 µM) of the same molecule?
**A.** 2.66%

**Q.** And the viability, T/C (second compound 30 µM, first compound 3 µM)?
**A.** 0.54%
